Settings: at 23° C

Compound: O=S(=O)([O-])C(F)(F)C(F)(F)C(F)(F)C(F)(F)C(F)(F)C(F)(F)C(F)(F)C(F)(F)F.[K+] [KPFS-8, potassium PFS-8]
- solubility: ≤ 1000 µg/mL

Source: patent US20050145571A1, “Extraction and recovery of ions from a solution” (priority 2001, published 2005)
